“Also recorded” adds a separate entry of the source.
Legend:
tapA-sipW-tasA operon = assay: tapA-sipW-tasA transcription, PtapA-gfp reporter; assay type: cell-based, Bacillus subtilis; conditions: B. subtilis; matrix genes (sinI, tapA reporters); 1 μM
Protocol: (§1) Planktonic growth, attachment to surfaces, induction of extracellular matrix genes tapA-sipW-tasA operon sinI regulator involved in biofilm formation, and biofilm development was measured and compared amongst the natural compounds identified by the screen. For the analysis for enhancement of biofilm formation and transcription of matrix genes 1 uM aqueous solutions comprising each natural compound were tested.
(§2) Gene expression: Gene expression was measure using reporter genes (luciferase or green fluorescent protein) Luminescence of a strains harboring sacA: PsinI-luciferase was measure in the presence or absence of 1 μM of the natural compounds presented in FIGS. 2A and 2B. Fluorescence of a strain harboring sacA::PtapA-gfp was measured in presence or absence of 1 μM of the natural compounds shown in FIGS. 2A and 2B. Results are a representative of six independent experiments; the SD represents an average of 5 wells.
(§3) The expression of SinI, the matrix regulator, was measured as was the expression of tapA-sipW-tasA operon, in the absence and presence of the natural compounds listed in FIG. 2B. Specifically, sinI transcription was monitored. SinI transcription is a direct readout for the activity of the genetic pathway resulting in matrix production and biofilm formation. sinI transcription in biofilm-inducing medium was monitored using the sinI promoter fused to luciferase.

B. subtilis 3610 = assay: Pellicle assay (floating biofilm formation in MSgg medium); assay type: cell-based, Bacillus subtilis; conditions: for biofilm formation (promotion/induction/enhancement): B. subtilis 3610, 1 μM of the natural compound, compared with not treated; for pellicle formation (inhibition): B. subtilis, 1 μM
Description: B. subtilis, NCBI 3610 (hereafter referred to as “3610”), forms robust and highly structured biofilms in liquid medium. When inoculated into a standing culture of minimal medium, 3610 initially grows planktonically as motile, single cells. The cells then migrate to the air-liquid interface, where they proliferate as long chains of non-motile cells. These chains are highly ordered in parallel patterns and are bound together tightly, presumably by an extracellular matrix (ECM), to form a floating biofilm (pellicle). Growth of the bundled chains continues, giving rise to larger biofilm structures that include the fruiting bodies. Thus, we consider pellicles as a highly robust setting for the study of B. subtilis biofilms
Two different assays were used to screen a natural compounds library (AnalytiCon Discovery GmbH Germany (http://www.ac-discovery.com/) for biofilm formation. A Petri Assay was used to observed changes in structure and size of biofilms, while a Pellicle Assay was used to study biofilm inhibitors and biofilm induction (FIG. 1).
The protocol for the pellicle essay comprised the following steps:
A 2× solution of rich, defined biofilm-inducing MSgg medium (Branda, S. S., Gonzalez-Pastor, J. E., Ben-Yehuda, S., Losick, R. & Kolter, R. Fruiting body formation by Bacillus subtilis. Proceedings of the National Academy of Sciences of the United States of America 98, 11621-11626, doi:10.1073/pnas.191384198 (2001)), without the calcium chloride and iron(III) chloride hexahydrate was prepared. After filter sterilization, the calcium chloride was added. The medium was ready to use directly or it could be stored at 4° C. in the dark.
A 1× dilution medium was prepared on the day of the experiment. The 2× MSgg medium was diluted to 1× with sterile distilled water (pellicles) or sterile 3% hot (80° C.) agar (biofilms) and iron(III) chloride hexahydrate added to a final concentration of 50 μM (pellicles) or […] (biofilms). Molecules for screening were then added.
Compared to the original MSgg recipe (Branda, S. S., et al. (2001) ibid), the medium used contained 50 μg/ml threonine and the iron concentration to grow biofilm colonies on solid MSgg medium was increased 2.5× to optimize the wrinkled colony morphology. After solidification of the agar, dry the solid MSgg plates in a biological hood for 30-45 min prior to the inoculation.
The next step was to streak out B. subtilis from a −80° C. stock (a LB culture of 10^9 cells/ml frozen in 20% glycerol) to isolate single colonies on a LB-1.5% agar plate with a sterile tip or applicator stick. Cultures were grown overnight at 30° C.
Following this, a single colony was picked from the LB-1.5% agar plate for growth in 3 ml LB broth at 37° C. for 4 hours in a shaking incubator (shaking speed 200 rpm) The LB broth was replaced with biofilm-inducing MSgg medium prior to inoculation by centrifuging 1 ml starter culture for 3 min at 6000 g, carefully removing the supernatant and re-suspending the pellet in 1 ml MSgg medium. The rest of the culture can be discharged.
During the growth of the starter culture, a 12-well cell-culture multidish plate containing 3 ml of MSgg medium without or with a concentration range of the small molecules (natural products to be tested) was prepared. To rule out edge effects, the location of the different concentrations was distributed across the multidish plate. Alternatively, use 24-well cell-culture multidish plates containing 1.5 ml of MSgg medium was used.
The wells of the 12-well cell-culture multidish plate were inoculated with […] of the washed starter culture (1:1000 dilution). In certain embodiments, a lower dilution ratio, i.e. 1:500 could be used. This decreases the development time of the pellicles.
Grow the pellicles at 23° C. was under static conditions for three days. The pellicles were no moved during this time, as it could affect the final surface morphology of the pellicle.
Pictures of the pellicles were taken with a high resolution camera. […]

sinI = sinI transcription, sinI promoter fused to luciferase reporter; assay type: cell-based, Bacillus subtilis; conditions: 1 μM; PsinI-luciferase, luminescence divided by OD600
Protocol: as §1, §2, §3

B. subtilis = assay: Planktonic growth; assay type: cell-based, Bacillus subtilis; conditions: 1 μM
Protocol: as §1

P. sytingae pv tomato = assay: Submerged biofilm formation, crystal violet staining of attached cells; assay type: cell-based
Description: Similar to Example 1, a Pellicle Assay was used to study biofilm inhibitors (FIG. 1). Analysis of submerged biofilm formation by P. sytingae pv tomato included staining attached cells with crystal violet and quantified as known in the art (Mol Microbiology 28:449-461).

Row | Compound | transcription expression of matrix genes (tapA-sipW-tasA operon) | biofilm formation (promotion/induction/enhancement) (B. subtilis 3610) | transcription of sinI (sinI) | effect on planktonic growth (B. subtilis) | attachment in the plant pathogen (inhibition) (P. sytingae pv tomato) | pellicle formation (inhibition) (B. subtilis 3610)
1 | COc1cc(-c2cc(=O)c3c(O)c(OC)c(OC)c(O)c3o2)ccc1O [isothymonin, 5,8-dihydroxy-2-(4-hydroxy-3-methoxyphenyl)-6,7-dimethoxy-4H-chromen-4-one] | enhance transcription expression of matrix genes | enhance biofilm formation; also recorded: promoted, induced, and enhanced | significantly enhanced |  |  | 
2 | CCCCCc1cc(O)c(C/C=C(\C)CCC=C(C)C)c(O)c1 [(E)-2-(3,7-dimethylocta-2,6-dien-1-yl)-5-pentylbenzene-1,3-diol] |  |  |  | inert to planktonic growth | strongly inhibited attachment | blocked pellicle formation; also recorded: mildly inhibited
3 | C=C[C@H]1[C@H](OC2OC(CO)C(O)C(O)C2O)OC=C(C(=O)OC)[C@H]1CCOC(=O)c1cc(O)c(O)c(O)c1 (stereo partly drawn) [cornuside, (2S,3R,4S)-methyl 2-((3,4,5-trihydroxy-6-(hydroxymethyl)tetrahydro-2H-pyran-2-yl)oxy)-4-(2-((3,4,5-trihydroxybenzoyl)oxy)ethyl)-3-vinyl-3,4-dihydro-2H-pyran-5-carboxylate] | enhance transcription expression of matrix genes | enhance biofilm formation; also recorded: promoted, induced, and enhanced | significantly enhanced |  |  | 
4 | COc1cc(O)c2c(=O)c(O[C@@H]3O[C@H](CO)[C@@H](O)[C@H](O)[C@H]3O[C@@H]3O[C@H](CO)[C@@H](O)[C@H](O)[C@H]3O)c(-c3ccc(O)c(O)c3)oc2c1 [3-(((2S,3R,4S,5S,6R)-4,5-dihydroxy-6-(hydroxymethyl)-3-(((2S,3R,4S,5S,6R)-3,4,5-trihydroxy-6-(hydroxymethyl)tetrahydro-2H-pyran-2-yl)oxy)tetrahydro-2H-pyran-2-yl)oxy)-2-(3,4-dihydroxyphenyl)-5-hydroxy-7-methoxy-4H-chromen-4-one] | enhance transcription expression of matrix genes | enhance biofilm formation; also recorded: promoted, induced, and enhanced | significantly enhanced |  |  | 
5 | COc1cc2oc(-c3ccc(O)c(O)c3)c(OC)c(=O)c2c(O)c1OC [2-(3,4-dihydroxyphenyl)-5-hydroxy-3,6,7-trimethoxy-4H-chromen-4-one] | enhance transcription expression of matrix genes | enhance biofilm formation; also recorded: promoted, induced, and enhanced | significantly enhanced |  |  | 
6 | eupahakonenin B |  |  |  | inert to planktonic growth |  | blocked pellicle formation

Reference: patent US20200367493A1, “BIOCONTROL ENHANCERS” (YEDA RESEARCH AND DEVELOPMENT CO. LTD., priority 2016, published 2020)
